In patent US8859616B2, “Compounds and methods for enhancing hair growth” (Allergan, Inc., priority 2011, dated 2014):

How the values were obtained:
Assay in all cases: Prostanoid receptor functional activity measured by FLIPR
Format in all cases: cell-based
Details in all cases: n = 6 (#1), n = 3 (#2)
hEP4 = hEP4 (Homo sapiens, UniProt P35408)
Description: (§1) The above compounds are evaluated for their selectivity for various prostaglandin (PG) receptors. […] Thus, the method of the present invention may be carried out with EP3 and EP4 receptor agonists and/or prodrugs of EP3 and EP4 receptor agonists.

hIP = hIP (Homo sapiens, UniProt P43119)
Description: as §1

hFP = hFP (Homo sapiens, UniProt P43088)
Description: as §1

hEP1 = target: T1, hEP1 (Homo sapiens, UniProt P34995)
T1 sequence (P34995 1-402): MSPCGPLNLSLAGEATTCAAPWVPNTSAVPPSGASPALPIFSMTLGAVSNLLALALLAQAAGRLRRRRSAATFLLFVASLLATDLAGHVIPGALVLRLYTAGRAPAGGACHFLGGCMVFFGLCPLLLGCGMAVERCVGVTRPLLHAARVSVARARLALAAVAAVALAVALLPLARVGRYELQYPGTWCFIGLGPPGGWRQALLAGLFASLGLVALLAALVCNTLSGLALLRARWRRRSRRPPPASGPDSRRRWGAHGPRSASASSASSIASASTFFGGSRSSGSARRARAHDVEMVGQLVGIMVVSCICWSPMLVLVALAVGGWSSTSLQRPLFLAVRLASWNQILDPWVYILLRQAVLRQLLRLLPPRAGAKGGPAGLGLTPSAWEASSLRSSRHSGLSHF
Description: as §1

hEP3 = target: T2, hEP3 (Homo sapiens, UniProt P43115)
T2 sequence (P43115 1-390): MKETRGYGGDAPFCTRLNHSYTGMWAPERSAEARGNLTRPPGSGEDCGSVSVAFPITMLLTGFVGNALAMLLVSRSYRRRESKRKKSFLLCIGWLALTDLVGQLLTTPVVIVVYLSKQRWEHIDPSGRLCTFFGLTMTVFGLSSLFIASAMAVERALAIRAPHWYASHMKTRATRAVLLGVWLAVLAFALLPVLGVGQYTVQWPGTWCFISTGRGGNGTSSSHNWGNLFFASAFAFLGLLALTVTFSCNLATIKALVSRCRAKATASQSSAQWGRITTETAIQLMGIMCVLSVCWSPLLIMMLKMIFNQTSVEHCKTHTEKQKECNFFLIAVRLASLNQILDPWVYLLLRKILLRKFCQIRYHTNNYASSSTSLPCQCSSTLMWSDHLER
Description: as §1

hDP = target: T3, hDP (Homo sapiens, UniProt Q13258)
T3 sequence (Q13258 1-359): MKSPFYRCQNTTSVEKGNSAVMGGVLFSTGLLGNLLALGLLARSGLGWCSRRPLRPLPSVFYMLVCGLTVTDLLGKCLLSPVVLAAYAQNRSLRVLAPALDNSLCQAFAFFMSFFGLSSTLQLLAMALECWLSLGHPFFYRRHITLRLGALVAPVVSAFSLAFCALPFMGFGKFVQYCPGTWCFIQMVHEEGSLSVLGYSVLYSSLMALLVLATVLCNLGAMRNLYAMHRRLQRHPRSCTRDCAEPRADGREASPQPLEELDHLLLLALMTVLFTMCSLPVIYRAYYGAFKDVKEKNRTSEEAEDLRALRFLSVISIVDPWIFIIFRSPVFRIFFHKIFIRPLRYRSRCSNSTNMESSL
Description: as §1

hEP2 = hEP2 (Homo sapiens, UniProt P43116)
Description: as §1

hTP = target: T4, hTP (Homo sapiens, UniProt P21731)
T4 sequence (P21731 1-343): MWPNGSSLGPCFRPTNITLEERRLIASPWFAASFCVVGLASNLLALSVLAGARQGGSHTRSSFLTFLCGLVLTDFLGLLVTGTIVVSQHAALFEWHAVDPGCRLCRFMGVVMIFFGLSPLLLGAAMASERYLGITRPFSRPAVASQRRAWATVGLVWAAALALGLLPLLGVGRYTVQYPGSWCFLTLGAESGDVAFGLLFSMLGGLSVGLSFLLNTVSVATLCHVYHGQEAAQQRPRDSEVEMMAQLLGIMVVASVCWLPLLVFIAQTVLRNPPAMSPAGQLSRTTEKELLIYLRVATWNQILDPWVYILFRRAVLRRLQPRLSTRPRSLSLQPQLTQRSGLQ
Description: as §1

hEP2, sequence (P43116 whole entry): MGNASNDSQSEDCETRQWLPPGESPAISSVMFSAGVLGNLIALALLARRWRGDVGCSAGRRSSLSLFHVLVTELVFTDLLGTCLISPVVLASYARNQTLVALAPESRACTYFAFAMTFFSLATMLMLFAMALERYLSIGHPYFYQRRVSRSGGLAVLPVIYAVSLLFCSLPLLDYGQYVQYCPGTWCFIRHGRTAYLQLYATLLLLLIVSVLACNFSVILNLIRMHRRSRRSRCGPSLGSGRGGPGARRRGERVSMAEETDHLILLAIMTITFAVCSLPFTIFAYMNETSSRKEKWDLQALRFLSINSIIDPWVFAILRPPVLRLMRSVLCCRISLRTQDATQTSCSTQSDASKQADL
hEP4, sequence (P35408 whole entry): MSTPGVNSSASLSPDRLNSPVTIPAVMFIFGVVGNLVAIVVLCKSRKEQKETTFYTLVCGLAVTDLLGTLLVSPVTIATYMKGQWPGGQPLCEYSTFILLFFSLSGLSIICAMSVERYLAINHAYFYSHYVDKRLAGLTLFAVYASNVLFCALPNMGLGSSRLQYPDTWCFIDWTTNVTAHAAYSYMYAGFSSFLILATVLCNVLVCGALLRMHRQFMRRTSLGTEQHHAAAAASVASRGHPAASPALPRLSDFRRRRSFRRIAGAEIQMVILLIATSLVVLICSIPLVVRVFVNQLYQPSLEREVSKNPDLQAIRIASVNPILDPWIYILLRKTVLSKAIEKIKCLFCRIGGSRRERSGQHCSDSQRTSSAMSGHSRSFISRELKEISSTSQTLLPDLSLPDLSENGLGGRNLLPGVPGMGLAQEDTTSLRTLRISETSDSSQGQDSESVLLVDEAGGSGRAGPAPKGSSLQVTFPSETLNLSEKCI
hFP, sequence (P43088 whole entry): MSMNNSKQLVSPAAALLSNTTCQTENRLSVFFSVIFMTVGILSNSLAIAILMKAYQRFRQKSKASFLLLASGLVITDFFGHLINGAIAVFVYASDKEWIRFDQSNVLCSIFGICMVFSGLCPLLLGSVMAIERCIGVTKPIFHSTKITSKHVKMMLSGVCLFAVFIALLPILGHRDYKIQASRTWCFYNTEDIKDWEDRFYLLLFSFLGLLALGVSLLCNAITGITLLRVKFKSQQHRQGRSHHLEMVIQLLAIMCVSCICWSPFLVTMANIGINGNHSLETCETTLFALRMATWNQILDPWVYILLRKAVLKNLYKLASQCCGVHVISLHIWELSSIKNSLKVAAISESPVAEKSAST
hIP, sequence (P43119 whole entry): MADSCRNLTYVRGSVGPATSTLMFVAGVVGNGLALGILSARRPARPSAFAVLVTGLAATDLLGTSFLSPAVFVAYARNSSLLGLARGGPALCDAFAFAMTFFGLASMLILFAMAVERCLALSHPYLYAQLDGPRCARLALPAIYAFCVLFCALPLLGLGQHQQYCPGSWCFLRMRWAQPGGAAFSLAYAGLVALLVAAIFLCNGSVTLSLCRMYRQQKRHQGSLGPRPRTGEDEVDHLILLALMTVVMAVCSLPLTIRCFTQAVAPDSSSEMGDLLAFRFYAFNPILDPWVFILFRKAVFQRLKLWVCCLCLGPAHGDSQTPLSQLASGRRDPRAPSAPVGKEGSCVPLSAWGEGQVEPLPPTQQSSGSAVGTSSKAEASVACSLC

| Compound | EC50 (hEP4) [nM] | EC50 (hIP) [nM] | EC50 (hFP) [nM] | EC50 (hEP1) [nM] | EC50 (hEP3) [nM] | EC50 (hDP) [nM] | EC50 (hEP2) [nM] | EC50 (hTP) [nM] |
| --- | --- | --- | --- | --- | --- | --- | --- | --- |
| CCCCC[C@H](O)/C=C/[C@H]1[C@H](O)CC(=O)[C@@H]1SCCCSCC(=O)O [#1, {3-[(1R,2S,3R)-3-Hydroxy-2-((S)-(E)-3-hydroxyoct-1-enyl)-5-oxocyclopentyl-sulfanyl]propylsulfanyl}acetic acid] | 0.26 | > 10000 | > 10000 | 304 | 36 | > 10000 | 380 | 561 |
| CCCCC[C@H](O)/C=C/[C@H]1[C@H](O)CC(=O)[C@@H]1SCCCSCC(=O)OC(C)C [#2, {3-[(1R,2S,3R)-3-Hydroxy-2-((S)-(E)-3-hydroxyoct-1-enyl)-5-oxocyclopentyl-sulfanyl]propylsulfanyl}acetic acid isopropyl ester] | 2.55 | > 10000 | > 10000 | 2260 | 44 | > 10000 | 1110 | 3290 |
